Reference: ChEMBL document CHEMBL4402607, “Molecular Basis for Omapatrilat and Sampatrilat Binding to Neprilysin-Implications for Dual Inhibitor Design with Angiotensin-Converting Enzyme” (J Med Chem, 2020)

Key:
Neprilysin [1] = target: Neprilysin (Homo sapiens, UniProt P08473); experiment: Inhibition of NEP (unknown origin)
[2] = target: T1, Angiotensin-converting enzyme (Homo sapiens, UniProt P12821); experiment: Inhibition of human somatic ACE N-domain soluble form (1 to 629 residues) expressed in CHO cells using Z-FHL as substrate preincubated with enzyme followed by substrate addition by fluorescence based assay
T1 sequence (P12821 whole entry, the tested form may be a part): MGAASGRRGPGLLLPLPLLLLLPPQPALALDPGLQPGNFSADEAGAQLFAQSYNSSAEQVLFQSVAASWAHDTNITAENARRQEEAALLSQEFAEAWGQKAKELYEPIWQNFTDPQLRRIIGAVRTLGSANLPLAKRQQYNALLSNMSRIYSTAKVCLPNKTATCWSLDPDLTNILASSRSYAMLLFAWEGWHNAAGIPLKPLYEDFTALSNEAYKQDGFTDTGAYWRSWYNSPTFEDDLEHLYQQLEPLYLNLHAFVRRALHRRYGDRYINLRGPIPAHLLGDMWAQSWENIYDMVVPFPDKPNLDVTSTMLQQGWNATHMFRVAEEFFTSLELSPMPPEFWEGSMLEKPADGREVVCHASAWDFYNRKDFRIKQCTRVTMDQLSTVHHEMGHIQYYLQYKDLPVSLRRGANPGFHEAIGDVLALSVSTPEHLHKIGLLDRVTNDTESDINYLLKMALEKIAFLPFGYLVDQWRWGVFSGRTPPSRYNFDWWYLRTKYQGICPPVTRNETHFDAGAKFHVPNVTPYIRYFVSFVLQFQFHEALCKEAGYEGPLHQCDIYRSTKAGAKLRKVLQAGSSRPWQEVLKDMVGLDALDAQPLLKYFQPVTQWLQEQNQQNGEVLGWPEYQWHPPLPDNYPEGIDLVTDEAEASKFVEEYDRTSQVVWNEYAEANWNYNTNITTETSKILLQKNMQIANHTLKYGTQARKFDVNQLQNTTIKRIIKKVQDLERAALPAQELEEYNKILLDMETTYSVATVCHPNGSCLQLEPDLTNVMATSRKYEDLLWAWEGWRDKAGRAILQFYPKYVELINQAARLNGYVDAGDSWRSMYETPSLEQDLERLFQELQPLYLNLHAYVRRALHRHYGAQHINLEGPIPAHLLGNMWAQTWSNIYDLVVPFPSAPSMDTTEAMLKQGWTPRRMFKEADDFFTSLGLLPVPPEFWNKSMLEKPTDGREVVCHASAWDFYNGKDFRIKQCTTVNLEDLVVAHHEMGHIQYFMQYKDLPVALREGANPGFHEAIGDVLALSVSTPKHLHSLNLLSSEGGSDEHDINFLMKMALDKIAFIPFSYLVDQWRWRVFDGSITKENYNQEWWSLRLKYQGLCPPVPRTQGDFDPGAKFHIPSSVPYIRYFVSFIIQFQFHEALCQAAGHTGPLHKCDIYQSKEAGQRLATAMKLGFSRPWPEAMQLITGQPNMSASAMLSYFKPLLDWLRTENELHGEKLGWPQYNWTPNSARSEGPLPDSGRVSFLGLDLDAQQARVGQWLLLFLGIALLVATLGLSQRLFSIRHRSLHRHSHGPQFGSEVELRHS

[3] = target: T1, Angiotensin-converting enzyme; experiment: Inhibition of human testis ACE C-domain lacking unique O-glycosylated region, transmembrane anchor and cytoplasmic tail expressed in CHO cells using Z-FHL as substrate by fluorescence based assay
Neprilysin [4] = target: T2, Neprilysin (Rattus norvegicus, UniProt P07861); experiment: Inhibition of rat kidney NEP using glutaryl-Ala-Ala-beta-naphthylamide as substrate preincubated with enzyme for 15 mins followed by substrate addition
T2 sequence (P07861 whole entry): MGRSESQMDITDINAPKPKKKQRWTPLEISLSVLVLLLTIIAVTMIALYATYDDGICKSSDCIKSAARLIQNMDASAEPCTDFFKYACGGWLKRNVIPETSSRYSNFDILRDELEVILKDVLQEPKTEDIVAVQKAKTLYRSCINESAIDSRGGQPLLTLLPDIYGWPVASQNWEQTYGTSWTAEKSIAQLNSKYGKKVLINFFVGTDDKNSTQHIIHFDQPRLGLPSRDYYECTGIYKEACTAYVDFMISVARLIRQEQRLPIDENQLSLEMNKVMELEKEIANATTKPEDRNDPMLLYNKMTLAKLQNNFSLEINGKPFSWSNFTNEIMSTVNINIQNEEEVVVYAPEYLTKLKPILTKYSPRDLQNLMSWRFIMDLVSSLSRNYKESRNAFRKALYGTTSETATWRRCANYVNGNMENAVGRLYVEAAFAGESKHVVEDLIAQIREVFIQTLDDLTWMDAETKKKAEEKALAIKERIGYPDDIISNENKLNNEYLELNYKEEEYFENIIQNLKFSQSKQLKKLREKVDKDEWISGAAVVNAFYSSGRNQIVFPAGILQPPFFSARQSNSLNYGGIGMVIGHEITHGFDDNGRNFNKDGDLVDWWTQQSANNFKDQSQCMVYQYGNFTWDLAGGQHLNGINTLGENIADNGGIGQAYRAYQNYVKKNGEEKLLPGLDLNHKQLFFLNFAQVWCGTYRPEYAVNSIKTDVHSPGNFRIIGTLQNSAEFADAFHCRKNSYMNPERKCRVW

[5] = Inhibition of rabbit lung ACE using hippuryl-His-Leu as substrate preincubated with enzyme for 15 mins followed by substrate addition; design: species or system Oryctolagus cuniculus
[6] = target: T1, Angiotensin-converting enzyme; experiment: Inhibition of human ACE using MCA-RPPGFSAFK-Dnp-OH as substrate by fluorescence based analysis

Sequence of Neprilysin (Homo sapiens, UniProt P08473) (P08473 whole entry, the tested form may be a part): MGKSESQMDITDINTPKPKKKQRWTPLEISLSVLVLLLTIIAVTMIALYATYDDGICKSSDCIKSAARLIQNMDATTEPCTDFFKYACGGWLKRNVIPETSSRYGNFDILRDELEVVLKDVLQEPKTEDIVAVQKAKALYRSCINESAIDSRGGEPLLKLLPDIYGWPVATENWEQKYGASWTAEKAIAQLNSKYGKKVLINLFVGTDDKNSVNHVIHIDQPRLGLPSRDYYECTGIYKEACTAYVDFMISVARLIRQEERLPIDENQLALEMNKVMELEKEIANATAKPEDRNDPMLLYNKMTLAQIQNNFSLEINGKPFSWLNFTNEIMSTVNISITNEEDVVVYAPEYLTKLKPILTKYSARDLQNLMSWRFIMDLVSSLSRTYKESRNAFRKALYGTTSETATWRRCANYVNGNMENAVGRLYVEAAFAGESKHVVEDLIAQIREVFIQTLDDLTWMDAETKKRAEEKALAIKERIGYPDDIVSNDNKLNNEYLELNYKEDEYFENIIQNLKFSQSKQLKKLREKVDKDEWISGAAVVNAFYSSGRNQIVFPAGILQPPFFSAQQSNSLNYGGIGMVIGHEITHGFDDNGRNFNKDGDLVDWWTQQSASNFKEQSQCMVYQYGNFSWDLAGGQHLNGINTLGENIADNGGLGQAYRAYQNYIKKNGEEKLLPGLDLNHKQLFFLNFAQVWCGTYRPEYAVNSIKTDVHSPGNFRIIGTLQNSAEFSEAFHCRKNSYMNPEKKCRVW

CS(=O)(=O)N[C@@H](CCCCN)C(=O)NC[C@H](CC1(C(=O)N[C@@H](Cc2ccc(O)cc2)C(=O)O)CCCC1)C(=O)O
IC50 (Neprilysin [1]): 8 nM | Ki [2]: 0.172 µM | Ki [3]: 0.0138 µM

CC(C)C[C@H](NP(=O)(O)O[C@@H]1O[C@@H](C)[C@H](O)[C@@H](O)[C@H]1O)C(=O)N[C@@H](Cc1c[nH]c2ccccc12)C(=O)O [PHOSPHORAMIDON]
IC50 (Neprilysin [4]): 34 nM | IC50 [5]: 78 µM

CC(=O)N[C@@H](CC(=O)O)C(=O)NC[C@H](CC1(C(=O)N[C@@H](Cc2ccc(O)cc2)C(=O)O)CCCC1)C(=O)O
Ki [2]: 10.6 µM | Ki [3]: 7.4 µM

C[C@H](C[C@@H](Cc1ccc(-c2ccccc2)cc1)NC(=O)CCC(=O)O)C(=O)O [LBQ-657]
IC50 [6]: > 100 µM
